Structures can show the parent of a compound that is named as a salt.

The record followed here is paper PMC6792352, “Limited Chemical Structural Diversity Found to Modulate Thyroid Hormone Receptor in the Tox21 Chemical Library” (Environmental Health Perspectives, 2019).

This data set can be described thus: in vitro. To be noted: rat, gh3-tre-luc cells.

As a reminder, the CC50 is the concentration that lowers cell viability or growth by half. Lower therefore signals greater toxicity to the cells. In turn, `CCN(CC)CCC(=O)N1c2ccccc2Sc2ccc(Cl)cc21` [Chloracizine] displayed a half-maximal cytotoxic concentration (CC50) at 24 h (AC50 (uM) modified / 1000) of 23.2 µM.
`Cc1ccc(C2(O)CCN(CCCC(=O)c3ccc(F)cc3)CC2)cc1` [Moperone] gave a half-maximal cytotoxic concentration (CC50) at 24 h (AC50 (uM) modified / 1000) of 30.1 µM.
On the same count and under the same terms, for `OC[C@@H](O)C(O)[C@@H](O)CO` (some centres unmarked) [Xylitol] the value was above 90 µM.
In turn, `Cc1ccc(S(N)(=O)=O)cc1` [4-Toluenesulfonamide] yielded a CC50 at 24 h (AC50 (uM) modified / 1000) above 90 µM.
Same read-out and setting: for `Cc1ncc(CO)c(CO)c1O` [Pyridoxine] the value was above 50 µM; for `C[C@@H]1O[C@@H](O[C@H]2C[C@@H](O)[C@]3(CO)[C@H]4[C@H](O)C[C@]5(C)[C@@H](C6=CC(=O)OC6)CC[C@]5(O)[C@@H]4CC[C@]3(O)C2)[C@H](O)[C@H](O)[C@H]1O` [Ouabain], above 80 µM; for `NCCc1c[nH]cn1` [Histamine], above 50 µM.
Same read-out and setting: the value for `CN1CCN(CC(=O)N2c3ccccc3C(=O)Nc3cccnc32)CC1` [Pirenzepine] was above 50 µM; that for `O=C1CN=C(c2ccccc2)c2cc(Cl)ccc2N1` [Desmethyldiazepam] was above 50 µM; that for `O=C(O)CCCCCCCCCCCC(=O)O` [Tridecanedioic acid] was above 90 µM.
Same read-out and setting: the value for `CCCCCBr` [1-Bromopentane] was above 100 µM; that for `CCCN1CCC[C@H](c2cccc(O)c2)C1` [R-3-PPP hydrochloride] was above 50 µM.
`O=C(Cl)c1c(Cl)cccc1Cl` [2,6-Dichlorobenzoyl chloride] showed a CC50 at 24 h (AC50 (uM) modified / 1000) above 90 µM.
Same read-out and setting: the value for `C=COC(=O)C(C)(C)CCCCCC` [Vinyl neodecanoate] was above 90 µM.
`CC(C)(N)Cc1ccc(Cl)cc1` [Chlorphentermine hydrochloride]: for the setting “AC50 (uM) modified / 1000, Tox21_110001=Tox21_111804, viability, 1 nM T3 present, 24 h”, the CC50 at 24 h was above 50 µM.
Consider `CCOC(=O)c1c(N)sc2c1CCN(Cc1ccccc1)C2` [Tinoridine], for which the CC50 at 24 h (AC50 (uM) modified / 1000) is above 50 µM.
The same measure, in the same setting: for `Nc1nc2c(ncn2CCC(CO)CO)c(=O)[nH]1` [Penciclovir] the value was above 50 µM.
Still for that read-out and setting: the value for `CCCCOC(=O)CO` [Butyl hydroxyacetate] was above 90 µM.
Molecule `O=C(O)c1cc2cc(Cc3cccnc3)ccc2o1` [Furegrelate sodium] registered a CC50 at 24 h (AC50 (uM) modified / 1000) above 50 µM.
On the same count and under the same terms, for `O=C(Nc1ccc2c(c1)Cc1ccccc1-2)C(F)(F)F` [N-(2-Fluorenyl)-2,2,2-trifluoroacetamide] the value was above 90 µM.
For the molecule `CCOC(=O)/C=C(C)/C=C/C[C@@H](C)CCCC(C)C` [(7S)-Hydroprene], the half-maximal cytotoxic concentration (CC50) at 24 h by setting is: (AC50 (uM) modified / 1000, Tox21_110001=Tox21_111800, viability, 1 nM T3 present, 24 h) above 50 µM; (AC50 (uM) modified / 1000, Tox21_110001=Tox21_301066, viability, 1 nM T3 present, 24 h) 87.1 µM.
Turning to `OC[C@@H](O)[C@H]1O[C@@H]2O[C@@H](C(Cl)(Cl)Cl)O[C@@H]2[C@H]1O` [beta-Chloralose], the CC50 at 24 h (AC50 (uM) modified / 1000, Tox21_110001=Tox21_112370, viability, 1 nM T3 present, 24 h) is above 50 µM.
`O=C(NCNC(=O)NC1C(=O)NC(=O)N1CO)NC1C(=O)NC(=O)N1CO` (centres unmarked) [Imidazolidinyl urea] came in with a CC50 at 24 h (AC50 (uM) modified / 1000) above 90 µM.
On the same count and under the same terms, the value for `CCCC(=O)O[C@]1(C(=O)CCl)[C@@H](C)C[C@H]2[C@@H]3CCC4=CC(=O)C=C[C@]4(C)[C@@]3(F)C(=O)C[C@@]21C` [Clobetasone butyrate] was above 50 µM.
On the same count and under the same terms, for `CC(C)NCC(O)COc1cccc2[nH]ccc12` (centres unmarked) [Pindolol] the value was above 50 µM; for `NCC1(CC(=O)O)CCCCC1` [Gabapentin], above 20 µM; for `COc1ccc(-c2cc(C(F)F)nn2-c2ccc(S(N)(=O)=O)cc2)cc1F` [Deracoxib], above 50 µM.
Still for that read-out and setting: the value for `CCCCC(F)(F)[C@@]1(O)CC[C@H]2[C@@H](CC(=O)[C@@H]2CCCCCCC(=O)O)O1` [Lubiprostone] was above 50 µM; that for `CC(C)CCC[C@@H](C)[C@H]1CC[C@H]2[C@@H]3CC=C4C[C@@H](O)CC[C@]4(C)[C@H]3CC[C@]12C` [Cholesterol] was above 50 µM.
On to `C1CCCNCCC1` [Heptamethyleneimine], for which the CC50 at 24 h (AC50 (uM) modified / 1000) was above 90 µM.
Still for that read-out and setting: the value for `C=CCSSSCC=C` [Diallyl trisulfide] was above 50 µM; that for `CCC(=O)C(=O)CC` [3,4-Hexanedione] was above 100 µM; that for `CCCC1COC(Cn2cncn2)(c2ccc(Cl)cc2Cl)O1` (centres unmarked) [Propiconazole] was 61 µM.
The same measure, in the same setting: for `CC(C)(C)NC(=O)[C@H]1CC[C@H]2[C@@H]3CC=C4C=C(C(=O)O)CC[C@]4(C)[C@H]3CC[C@]12C` [Epristeride] the value was above 50 µM.
Take `O=C(N/N=C/c1ccc([N+](=O)[O-])o1)c1ccc(O)cc1` [Nifuroxazide]: the half-maximal cytotoxic concentration (CC50) at 24 h (AC50 (uM) modified / 1000) is above 20 µM.
Same read-out and setting: for `Cc1cc(S(=O)(=O)O)ccc1N=Nc1c(O)ccc2ccccc12` [C.I. Acid Orange 8, monosodium salt] the value was 19.3 µM.
Regarding `CCOC(=O)C(C)Oc1ccc(Oc2cnc3cc(Cl)ccc3n2)cc1` (centres unmarked) [Quizalofop-ethyl], where the note is “AC50 (uM) modified / 1000”, the half-maximal cytotoxic concentration (CC50) at 24 h is above 90 µM.
On to `CCCCCCCCCCCCCCCC(=O)OCC(COC(=O)CCCCCCCCCCCCCCC)OC(=O)CCCCCCCCCCCCCCC` [Tripalmitin], for which the cytotoxic concentration (CC50) at 24 h (AC50 (uM) modified / 1000) was above 50 µM.
The same measure, in the same setting: the value for `CCCCOC(=O)CCCCCCCCC(=O)OCCCC` [Dibutyl decanedioate] was above 90 µM.
Still for that read-out and setting: for `O=[N+]([O-])c1ccc(/C=C/c2ccc([N+](=O)[O-])cc2S(=O)(=O)O)c(S(=O)(=O)O)c1` [Disodium 4,4'-dinitro-2,2'-stilbenedisulfonate] the value was above 90 µM; for `CC=O` [Acetaldehyde], 3.09 µM.
On the same count and under the same terms, for `O=C(O)CCCC[C@@H]1SC[C@@H]2NC(=O)N[C@@H]21` [Biotin] the value was above 90 µM.
In the case of `COP(=S)(OC)Oc1ccc([N+](=O)[O-])cc1Cl` [Dicapthon], for the setting “AC50 (uM) modified / 1000, Tox21_110001=Tox21_301908, viability, 1 nM T3 present, 24 h”, the CC50 at 24 h is above 90 µM.
Consider `N=C(N)N/N=C/c1c(Cl)cccc1Cl` [Guanabenz], for which the midpoint of cytotoxicity (AC50 (uM) modified / 1000), the CC50 at 24 h, lay at 20.8 µM.
The same measure, in the same setting: the value for `OCCc1ccncc1` [2-(Pyridin-4-yl)ethanol] was above 90 µM; that for `[O-][n+]1cc[n+]([O-])c2ccccc21` [Quindoxin] was above 50 µM.
Still for that read-out and setting: for `COc1ccc(C[C@@H]2c3cc(OC)c(OC)cc3CC[N@+]2(C)CCC(=O)OCCCCCOC(=O)CC[N@@+]2(C)CCc3cc(OC)c(OC)cc3[C@H]2Cc2ccc(OC)c(OC)c2)cc1OC` [Atracurium besylate] the value was above 20 µM; for `Fc1ccccc1-c1ccccc1` [2-Fluorobiphenyl], above 90 µM; for `O=C(O)c1cc(C(=O)O)cc([N+](=O)[O-])c1` [5-Nitroisophthalic acid], above 90 µM.
The same measure, in the same setting: for `CC1(C)S[C@@H]2[C@H](NC(=O)[C@H](N)c3ccc(O)cc3)C(=O)N2[C@H]1C(=O)O` [Amoxicillin] the value was above 50 µM; for `Oc1cc(O)c(Cl)cn1` [Gimeracil], above 50 µM; for `CSC(=O)c1c(C(F)F)nc(C(F)(F)F)c(C(=O)SC)c1CC(C)C` [Dithiopyr], 57.6 µM.
`Cc1ncc(COP(=O)(O)O)c(C=O)c1O` [Pyridoxal phosphate hydrate]: for the setting “AC50 (uM) modified / 1000”, the 50% cytotoxic concentration (CC50) at 24 h was above 50 µM.
Regarding `COc1ccc2c(C(=O)c3ccc(Cl)cc3)c(C)n(CC(=O)O)c2c1` [Clometacine], the cytotoxic concentration (CC50) at 24 h (AC50 (uM) modified / 1000, Tox21_110001=Tox21_113309, viability, 1 nM T3 present, 24 h) is above 50 µM.
`CCCC[P+](CCCC)(CCCC)CCCC` [Tetrabutylphosphonium bromide] gave a CC50 at 24 h (AC50 (uM) modified / 1000) above 90 µM.
Same read-out and setting: the value for `C/C=C(/CC[C@@H](C)[C@H]1CC[C@H]2C3=CC[C@H]4[C@H](C)[C@@H](O)CC[C@]4(C)[C@H]3CC[C@]12C)C(C)C` [Sitosterol alpha1] was above 50 µM; that for `COC(OC)OC` [Trimethoxymethane] was above 90 µM.
The same measure, in the same setting: for `CCOC(=O)NC(O)C(Cl)(Cl)Cl` (centres unmarked) [Carbocloral] the value was above 50 µM.
Consider `CCOP(=S)(Oc1cnc(C(C)(C)C)nc1)OC(C)C` (centres unmarked) [Tebupirimfos], for which the CC50 at 24 h (AC50 (uM) modified / 1000, Tox21_110001=Tox21_300965, viability, 1 nM T3 present, 24 h) is 52.3 µM.
For the molecule `CC/C=C\CC/C=C/C(OCC)OCC` [(2E,6Z)-1,1-diethoxynona-2,6-diene], the 50% cytotoxic concentration (CC50) at 24 h (AC50 (uM) modified / 1000) is above 90 µM.
The same measure, in the same setting: the value for `Oc1ccc(C2CNCCc3c2cc(O)c(O)c3Cl)cc1` (centres unmarked) [Fenoldopam] was above 50 µM; that for `CCOC(=O)CC(CC(=O)OCC)(OC(C)=O)C(=O)OCC` [Acetyltriethyl citrate] was above 90 µM.
On the same count and under the same terms, the value for `C[C@]12C[C@H](O)[C@H]3[C@@H](CCC4=CC(=O)CC[C@@]43C)[C@@H]1CC[C@@H]2C(=O)CO` [Corticosterone] was above 90 µM; that for `Brc1c(Br)c(Br)c(Br)c(Br)c1Br` [Hexabromobenzene] was above 5 µM.
On the same count and under the same terms, the value for `CC(C)c1ncc([N+](=O)[O-])n1C` [Ipronidazole] was above 50 µM.
For the setting “AC50 (uM) modified / 1000”, `CC(=O)SCc1ccco1` [S-Furfuryl thioacetate] showed a CC50 at 24 h above 90 µM.
The same measure, in the same setting: the value for `C[C@@H]1O[C@@H](O[C@@H]2[C@@H](O)[C@H](OCCc3ccc(O)c(O)c3)O[C@H](CO[C@@H]3O[C@H](CO)[C@@H](O)[C@H](O)[C@H]3O)[C@H]2OC(=O)/C=C/c2ccc(O)c(O)c2)[C@H](O)[C@H](O)[C@H]1O` [Echinacoside] was above 90 µM; that for `CCc1cnc(C(=O)O)c(C(=O)O)c1` [5-Ethyl-2,3-pyridinedicarboxylic acid] was above 100 µM.
Same read-out and setting: the value for `CC(N)[C@]12C[C@H]3C[C@H](C[C@H](C3)C1)C2` (some centres unmarked) [Rimantadine hydrochloride] was above 50 µM.
For the setting “AC50 (uM) modified / 1000”, `CO/C=C(/C(=O)OC)c1ccccc1Oc1cc(Oc2ccccc2C#N)ncn1` [Azoxystrobin] came in with a CC50 at 24 h above 100 µM.
